Key:
B. subtilis 168 [1] = assay: fitness (endpoint OD595 vs no drug) (fraction); higher = more growth
Procedure, shortened: (§1)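 Volumes were 30 µl per well, or 55 µl for S. pneumoniae, in 384-well plates inoculated at OD595 0.01. Media were TSB, LB Lennox or CY at 37 °C, and OD595 was read every 30 min for 14 h with first-reading background subtraction. Fitness is the ratio of optical density at stationary-phase entry to the robust mean of no-drug controls. That ratio is capped at 1.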

S. pneumoniae D39V [2] = assay: as above
Procedure, shortened: as §1

B. subtilis 168 [3] = assay: Bliss interaction score (quartile over a dose matrix) (fitness difference); higher = more antagonism (negative = synergy)
Procedure, shortened: (§2)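 Fitness was OD595 at entry into stationary phase divided by the plate's robust no-drug mean and capped at 1; single-drug fitness was inferred from combination data. The Bliss score is observed minus expected (product) fitness, summarised by quartiles over technical, biological and donor/recipient replicates.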

S. aureus DSM 20231 = assay: as above
Procedure, shortened: as §2

S. aureus Newman = assay: as above
Procedure, shortened: as §2

S. pneumoniae D39V [4] = assay: as above
Procedure, shortened: as §2
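Wherever Bliss interaction score (quartile over a dose matrix) is given: first quartile when negative (synergy) and third quartile when positive (antagonism).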

CN(C)C(=O)C(CCN1CCC(O)(c2ccc(Cl)cc2)CC1)(c1ccccc1)c1ccccc1 [Loperamide] + CN(C)c1cc(NC(=O)CNC(C)(C)C)c(O)c2c1C[C@H]1C[C@H]3[C@H](N(C)C)C(O)=C(C(N)=O)C(=O)[C@@]3(O)C(O)=C1C2=O [Tigecycline]
fitness
Conditions | first compound 17.14 µg/mL | first compound 20 µg/mL | first compound 25 µg/mL | first compound 34.28 µg/mL | first compound 40 µg/mL | first compound 50 µg/mL | first compound 80 µg/mL | first compound 100 µg/mL
B. subtilis 168 [1], partner 0.039 µg/mL | – | – | 0.894 | – | – | 0.132 | – | 0.0203
B. subtilis 168 [1], partner 0.078 µg/mL | – | – | 0.832 | – | – | 0.0334 | – | 0.0305
B. subtilis 168 [1], partner 0.156 µg/mL | – | – | 0.825 | – | – | 0.0355 | – | 0.0215
S. pneumoniae D39V [2], partner 0.65 µg/mL | 0.945 | 0.995 | – | 0.993 | 0.991 | – | 0.0427 | –
S. pneumoniae D39V [2], partner 1.3 µg/mL | ≥ 1 | 0.931 | – | 0.991 | 0.977 | – | 0.0494 | –
S. pneumoniae D39V [2], partner 2.6 µg/mL | ≥ 1 | 0.944 | – | 0.98 | 0.995 | – | 0.0611 | –

fitness, one replicate
Conditions | partner 0.125 µg/mL | partner 0.25 µg/mL | partner 0.5 µg/mL | partner 0.65 µg/mL | partner 1.3 µg/mL | partner 2.6 µg/mL
B. subtilis 168 [1], first compound 25 µg/mL | 0.978 | 0.884 | 0.858 | – | – | –
B. subtilis 168 [1], first compound 50 µg/mL | 0.327 | 0.22 | 0.272 | – | – | –
B. subtilis 168 [1], first compound 100 µg/mL | 0.67 | 0.512 | 0.67 | – | – | –
S. pneumoniae D39V [2], first compound 68.57 µg/mL | – | – | – | ≥ 1 | ≥ 1 | ≥ 1

Conditions | Bliss interaction score
B. subtilis 168 [3] | 0.115
S. aureus DSM 20231 | -0.115
S. aureus Newman | 0.0321
S. pneumoniae D39V [4] | 0.084

CN(C)C(=O)C(CCN1CCC(O)(c2ccc(Cl)cc2)CC1)(c1ccccc1)c1ccccc1 [Loperamide] + CN(N=O)C(=O)N[C@@H](C=O)[C@@H](O)[C@H](O)[C@H](O)CO [Streptozotocin]
fitness, one replicate
Conditions | first compound 20 µg/mL | first compound 25 µg/mL | first compound 40 µg/mL | first compound 50 µg/mL | first compound 68.57 µg/mL | first compound 80 µg/mL | first compound 100 µg/mL
B. subtilis 168 [1], partner 0.15 µg/mL | – | 0.843 | – | 0.0229 | – | – | 0.0221
B. subtilis 168 [1], partner 0.3 µg/mL | – | 0.802 | – | 0.0269 | – | – | 0.0127
B. subtilis 168 [1], partner 0.6 µg/mL | – | 0.821 | – | 0.025 | – | – | 0.02
S. pneumoniae D39V [2], partner 1.2 µg/mL | ≥ 1 | – | ≥ 1 | – | 0.971 | 0.0146 | –
S. pneumoniae D39V [2], partner 2.4 µg/mL | ≥ 1 | – | ≥ 1 | – | 0.929 | 0.0167 | –
S. pneumoniae D39V [2], partner 4.8 µg/mL | ≥ 1 | – | ≥ 1 | – | ≥ 1 | 0 | –

fitness, S. pneumoniae D39V [2]
Conditions | partner 1.2 µg/mL | partner 2.4 µg/mL | partner 4.8 µg/mL
first compound 17.14 µg/mL | 0.962 | 0.943 | 0.974
first compound 34.28 µg/mL | 0.956 | 0.982 | 0.978

Conditions | Bliss interaction score
B. subtilis 168 [3] | -0.0219
S. aureus DSM 20231 | 0.103
S. aureus Newman | 0.0514
S. pneumoniae D39V [4] | 0.0707

CN(C)C(=O)C(CCN1CCC(O)(c2ccc(Cl)cc2)CC1)(c1ccccc1)c1ccccc1 [Loperamide] + CN[C@@H]1[C@H](O)[C@H](NC)[C@H]2O[C@@]3(O)C(=O)C[C@@H](C)O[C@H]3O[C@@H]2[C@H]1O [Spectinomycin]
fitness
Conditions | partner 2 µg/mL | partner 4 µg/mL | partner 8 µg/mL | partner 16 µg/mL
B. subtilis 168 [1], first compound 25 µg/mL | 0.812 | 0.78 | 0.566 | –
S. pneumoniae D39V [2], first compound 17.14 µg/mL | – | 0.983 | 0.974 | 0.93
S. pneumoniae D39V [2], first compound 34.28 µg/mL | – | 0.994 | 0.909 | 0.929

fitness, S. pneumoniae D39V [2], one replicate
Conditions | first compound 20 µg/mL | first compound 40 µg/mL | first compound 68.57 µg/mL | first compound 80 µg/mL
partner 4 µg/mL | ≥ 1 | ≥ 1 | ≥ 1 | 0.977
partner 8 µg/mL | ≥ 1 | ≥ 1 | ≥ 1 | 0.966
partner 16 µg/mL | – | – | 0.983 | –

Conditions | Bliss interaction score
B. subtilis 168 [3] | 0.354
S. aureus DSM 20231 | 0.104
S. aureus Newman | -0.103
S. pneumoniae D39V [4] | 0.126

CN(C)C(=O)C(CCN1CCC(O)(c2ccc(Cl)cc2)CC1)(c1ccccc1)c1ccccc1 [Loperamide] + CN[C@@H]1[C@H](O[C@H]2[C@H](O[C@H]3[C@H](O)[C@@H](O)[C@H](N=C(N)N)[C@@H](O)[C@@H]3N=C(N)N)O[C@@H](C)[C@]2(O)C=O)O[C@@H](CO)[C@H](O)[C@H]1O [Streptomycin]
fitness
Conditions | partner 2 µg/mL | partner 4 µg/mL | partner 8 µg/mL
B. subtilis 168 [1], first compound 25 µg/mL | 0.643 | 0.106 | 0.0172
B. subtilis 168 [1], first compound 50 µg/mL | 0.0768 | 0.0399 | 0.019
B. subtilis 168 [1], first compound 100 µg/mL | 0.0865 | 0.0369 | 0.0223
S. pneumoniae D39V [2], first compound 17.14 µg/mL | 0.941 | 0.98 | 0.961
S. pneumoniae D39V [2], first compound 20 µg/mL | – | ≥ 1 | 0.987
S. pneumoniae D39V [2], first compound 34.28 µg/mL | 0.948 | 0.992 | 0.967
S. pneumoniae D39V [2], first compound 40 µg/mL | – | 0.997 | ≥ 1

fitness, S. pneumoniae D39V [2], one replicate
Conditions | first compound 20 µg/mL | first compound 40 µg/mL | first compound 68.57 µg/mL | first compound 80 µg/mL
partner 2 µg/mL | ≥ 1 | ≥ 1 | 0.871 | 0.86
partner 4 µg/mL | – | – | 0.973 | –
partner 8 µg/mL | – | – | 0.966 | –
partner 16 µg/mL | 0.918 | 0.931 | – | 0.107

Conditions | Bliss interaction score
B. subtilis 168 [3] | -0.0818
S. aureus DSM 20231 | -0.236
S. aureus Newman | 0.0869
S. pneumoniae D39V [4] | 0.125

CN(C)C(=O)C(CCN1CCC(O)(c2ccc(Cl)cc2)CC1)(c1ccccc1)c1ccccc1 [Loperamide] + COc1c(N2C[C@@H]3CCCN[C@@H]3C2)c(F)cc2c(=O)c(C(=O)O)cn(C3CC3)c12 [Moxifloxacin]
Conditions | fitness
B. subtilis 168 [1], first compound 25 µg/mL, partner 0.0312 µg/mL | 0.0408
B. subtilis 168 [1], first compound 25 µg/mL, partner 0.0625 µg/mL | 0.0524
B. subtilis 168 [1], first compound 25 µg/mL, partner 0.125 µg/mL | 0.0382
B. subtilis 168 [1], first compound 25 µg/mL, partner 2 µg/mL | 0.0259
B. subtilis 168 [1], first compound 25 µg/mL, partner 4 µg/mL | 0.0205
B. subtilis 168 [1], first compound 25 µg/mL, partner 8 µg/mL | 0.017
B. subtilis 168 [1], first compound 50 µg/mL, partner 0.0312 µg/mL | 0.0458
B. subtilis 168 [1], first compound 50 µg/mL, partner 0.0625 µg/mL | 0.0525
B. subtilis 168 [1], first compound 50 µg/mL, partner 0.125 µg/mL | 0.068
B. subtilis 168 [1], first compound 50 µg/mL, partner 2 µg/mL | 0.0274
B. subtilis 168 [1], first compound 50 µg/mL, partner 4 µg/mL | 0.0294
B. subtilis 168 [1], first compound 50 µg/mL, partner 8 µg/mL | 0.0145
B. subtilis 168 [1], first compound 100 µg/mL, partner 0.0312 µg/mL | 0.0464
B. subtilis 168 [1], first compound 100 µg/mL, partner 0.0625 µg/mL | 0.0527
B. subtilis 168 [1], first compound 100 µg/mL, partner 0.125 µg/mL | 0.0413
B. subtilis 168 [1], first compound 100 µg/mL, partner 2 µg/mL | 0.0272
B. subtilis 168 [1], first compound 100 µg/mL, partner 4 µg/mL | 0.0176
B. subtilis 168 [1], first compound 100 µg/mL, partner 8 µg/mL | 0.0179
S. pneumoniae D39V [2], first compound 17.14 µg/mL, partner 0.0037 µg/mL | 0.897
S. pneumoniae D39V [2], first compound 17.14 µg/mL, partner 0.0075 µg/mL | 0.952
S. pneumoniae D39V [2], first compound 17.14 µg/mL, partner 0.015 µg/mL | 0.85
S. pneumoniae D39V [2], first compound 20 µg/mL, partner 0.005 µg/mL | ≥ 1
S. pneumoniae D39V [2], first compound 20 µg/mL, partner 0.01 µg/mL | ≥ 1
S. pneumoniae D39V [2], first compound 20 µg/mL, partner 0.02 µg/mL | ≥ 1
S. pneumoniae D39V [2], first compound 34.28 µg/mL, partner 0.0037 µg/mL | 0.822
S. pneumoniae D39V [2], first compound 34.28 µg/mL, partner 0.0075 µg/mL | 0.905
S. pneumoniae D39V [2], first compound 34.28 µg/mL, partner 0.015 µg/mL | 0.836
S. pneumoniae D39V [2], first compound 40 µg/mL, partner 0.005 µg/mL | ≥ 1
S. pneumoniae D39V [2], first compound 40 µg/mL, partner 0.01 µg/mL | ≥ 1
S. pneumoniae D39V [2], first compound 40 µg/mL, partner 0.02 µg/mL | ≥ 1

S. pneumoniae D39V [2], first compound 68.57 µg/mL, one replicate
Conditions | fitness
partner 0.0037 µg/mL | 0.729
partner 0.0075 µg/mL | 0.796
partner 0.015 µg/mL | 0.779

Conditions | Bliss interaction score
B. subtilis 168 [3] | 0.035
S. aureus DSM 20231 | 0.13
S. aureus Newman | 0.0359
S. pneumoniae D39V [4] | 0.0769

Source: the supplement of paper PMC10627819
